Experimental data: PubChem BioAssay (NCI)
Where “and” joins values, the source holds several entries; their conditions need not be identical. Equal entries are not always repeated.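 1) Cells in 96-well plates. 2) Compound, 48 h, 5 concentrations. 3) Linear interpolation between surrounding doses. 4) Unreached endpoint = highest concentration. The concentration for 50% growth inhibition is given as GI50. TGI: total growth inhibition.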

Legend:
Assay in all cases: growth of human tumour cells (NCI), 48 h
786-0 renal = tested on: 786-0 renal
CCRF-CEM leukemia = tested on: CCRF-CEM leukemia
MDA-MB-435 = tested on: MDA-MB-435
NCI-H23 lung = tested on: NCI-H23 lung
SF-539 CNS = tested on: SF-539 CNS
SW-620 colon = tested on: SW-620 colon
TK-10 renal = tested on: TK-10 renal
BT-549 breast = tested on: BT-549 breast
HOP-92 NSCLC = tested on: HOP-92 NSCLC
RXF 393 renal = tested on: RXF 393 renal

O=C(COc1cccc(/C=C2\CSc3ccccc3C2=O)c1)Nc1nccs1
GI50 (786-0 renal): 3.7 µM
TGI (786-0 renal): 13 µM
GI50 (CCRF-CEM leukemia): 1.26 µM
TGI (CCRF-CEM leukemia): 4.06 µM
GI50 (MDA-MB-435): 2020 nM
TGI (MDA-MB-435): 4.85 µM
GI50 (NCI-H23 lung): 1.85 µM
TGI (NCI-H23 lung): 8.79 µM
GI50 (SF-539 CNS): 2.4 µM
TGI (SF-539 CNS): 13.3 µM
GI50 (SW-620 colon): 1.95 µM
TGI (SW-620 colon): 4.52 µM
GI50 (TK-10 renal): 2.25 µM
TGI (TK-10 renal): 4.89 µM

COC(=O)c1ccc(NC(=O)Oc2ccc(N(CCCl)CCCl)cc2)cc1
GI50 (786-0 renal): 4.95 µM
TGI (786-0 renal): 25.6 µM
GI50 (BT-549 breast): 10.2 µM
TGI (BT-549 breast): > 100 µM
GI50 (CCRF-CEM leukemia): 0.782 µM
TGI (CCRF-CEM leukemia): > 100 µM
GI50 (HOP-92 NSCLC): 14.3 µM
TGI (HOP-92 NSCLC): 53.4 µM
GI50 (MDA-MB-435): 11500 nM
TGI (MDA-MB-435): > 100 µM
GI50 (NCI-H23 lung): 4.75 µM
TGI (NCI-H23 lung): > 100 µM
GI50 (RXF 393 renal): 6.28 µM
TGI (RXF 393 renal): 32.3 µM
GI50 (SF-539 CNS): 2.92 µM
TGI (SF-539 CNS): 18.9 µM
GI50 (SW-620 colon): 4.89 µM
TGI (SW-620 colon): > 100 µM
GI50 (TK-10 renal): 21.6 µM
TGI (TK-10 renal): 58.9 µM

CN(CCCNC(=O)CCOCCOCCOCCNC(=O)Cc1ccc2ccc3cccc4ccc1c2c34)CCCNc1cc(-c2ccc3ccccc3c2)nc2ccccc12
GI50 (786-0 renal): 0.615 µM
TGI (786-0 renal): 1.11 µM
GI50 (BT-549 breast): 2.01 µM
TGI (BT-549 breast): 4.68 µM
GI50 (HOP-92 NSCLC): 0.38 µM
TGI (HOP-92 NSCLC): 2.22 µM
GI50 (MDA-MB-435): 108 nM
TGI (MDA-MB-435): 0.403 µM
GI50 (NCI-H23 lung): 0.767 µM
TGI (NCI-H23 lung): 2.1 µM
GI50 (RXF 393 renal): 0.507 µM
TGI (RXF 393 renal): 0.963 µM
GI50 (SF-539 CNS): 0.526 µM
TGI (SF-539 CNS): 0.99 µM
GI50 (SW-620 colon): 0.247 µM
TGI (SW-620 colon): 0.654 µM
GI50 (TK-10 renal): 3.29 µM
TGI (TK-10 renal): 14.7 µM

CC(=O)O[C@H]1CC[C@@]2(C)C(=CC[C@@H]3C2CC[C@]2(C)Nc4nc5ccccc5cc4CC32)C1 (stereo partly specified)
TGI (786-0 renal): 10.7 µM
TGI (CCRF-CEM leukemia): 14 µM
TGI (NCI-H23 lung): 26.6 µM
TGI (RXF 393 renal): 5.09 µM
TGI (SF-539 CNS): 12 µM
TGI (SW-620 colon): 7.2 µM
TGI (TK-10 renal): 18.1 µM

C=CCc1cc(OC)c2c(c1)C(OC)CC(c1ccc(OC)c(OC)c1)O2 (stereo unspecified)
TGI (786-0 renal): > 100 µM
TGI (CCRF-CEM leukemia): > 100 µM
TGI (SF-539 CNS): > 100 µM
TGI (SW-620 colon): > 100 µM
TGI (TK-10 renal): > 100 µM

CN(C)C(=S)SCC(=O)Nc1ccccc1
TGI (786-0 renal): > 100 µM
TGI (BT-549 breast): > 100 µM
TGI (CCRF-CEM leukemia): > 100 µM
TGI (HOP-92 NSCLC): > 100 µM
TGI (MDA-MB-435): > 100 µM
TGI (NCI-H23 lung): > 100 µM
TGI (RXF 393 renal): > 100 µM
TGI (SW-620 colon): > 100 µM

CCOC(=O)COc1ccc2c(C)cc(=O)oc2c1
TGI (786-0 renal): > 100 µM
TGI (BT-549 breast): > 100 µM
TGI (CCRF-CEM leukemia): > 100 µM
TGI (HOP-92 NSCLC): > 100 µM
TGI (MDA-MB-435): > 100 µM
TGI (NCI-H23 lung): > 100 µM
TGI (RXF 393 renal): > 100 µM
TGI (SF-539 CNS): > 100 µM
TGI (SW-620 colon): > 100 µM

COc1cccc(/C=C2\COc3ccc(-c4ccccc4)cc3C2=O)c1
GI50 (786-0 renal): 2.63 µM
TGI (786-0 renal): 6.45 µM
GI50 (BT-549 breast): 2.09 µM
TGI (BT-549 breast): 4.94 µM
GI50 (CCRF-CEM leukemia): 2.42 µM
TGI (CCRF-CEM leukemia): 28.1 µM
GI50 (HOP-92 NSCLC): 2.34 µM
TGI (HOP-92 NSCLC): 9.41 µM
GI50 (MDA-MB-435): 3210 nM
TGI (MDA-MB-435): > 100 µM
GI50 (NCI-H23 lung): 3.14 µM
TGI (NCI-H23 lung): 10 µM
GI50 (SF-539 CNS): 2.05 µM
TGI (SF-539 CNS): 4.12 µM
GI50 (SW-620 colon): 2.01 µM
TGI (SW-620 colon): 4.54 µM
GI50 (TK-10 renal): 2.35 µM
TGI (TK-10 renal): 5.03 µM

CCOc1ccc(NC(=O)CC2C(=O)Nc3ccccc3S2(=O)=O)cc1 (stereo unspecified)
TGI (786-0 renal): > 100 µM
TGI (HOP-92 NSCLC): 55.5 µM
TGI (NCI-H23 lung): > 100 µM
TGI (RXF 393 renal): > 100 µM
TGI (SF-539 CNS): > 100 µM
TGI (SW-620 colon): > 100 µM
TGI (TK-10 renal): > 100 µM

Cn1nc(-c2ccccc2)c2c(/C=C/c3ccccc3)onc2c1=O
TGI (786-0 renal): > 100 µM
TGI (CCRF-CEM leukemia): > 100 µM
TGI (HOP-92 NSCLC): 98.2 µM
TGI (NCI-H23 lung): > 100 µM
TGI (RXF 393 renal): > 100 µM
TGI (SF-539 CNS): > 100 µM
TGI (TK-10 renal): > 100 µM

O=S(=O)(c1cnccc1N1CCN(CCO)CC1)N1CCCC1
TGI (786-0 renal): > 100 µM
TGI (BT-549 breast): > 100 µM
TGI (HOP-92 NSCLC): > 100 µM
TGI (MDA-MB-435): > 100 µM
TGI (NCI-H23 lung): > 100 µM
TGI (RXF 393 renal): > 100 µM
TGI (SF-539 CNS): > 100 µM
TGI (SW-620 colon): > 100 µM
TGI (TK-10 renal): > 100 µM

CC1(c2ccc(Cl)cc2)C2C(=O)NC(=O)C1C(=O)NC2=O (stereo unspecified)
TGI (786-0 renal): > 100 µM
TGI (CCRF-CEM leukemia): > 100 µM
TGI (HOP-92 NSCLC): > 100 µM
TGI (NCI-H23 lung): > 100 µM
TGI (RXF 393 renal): > 100 µM
TGI (SF-539 CNS): > 100 µM
TGI (SW-620 colon): > 100 µM
TGI (TK-10 renal): > 100 µM

Brc1ccc2ns[s+]c2c1
TGI (786-0 renal): > 100 µM
TGI (CCRF-CEM leukemia): > 100 µM
TGI (HOP-92 NSCLC): 95 µM
TGI (NCI-H23 lung): > 100 µM
TGI (RXF 393 renal): > 100 µM
TGI (SF-539 CNS): 65.3 µM
TGI (SW-620 colon): > 100 µM
TGI (TK-10 renal): > 100 µM

CC(=O)OC1COC(n2c(=S)n(-c3ccccc3)c(=O)c3ccccc32)C(OC(C)=O)C1OC(C)=O (stereo unspecified)
TGI (786-0 renal): > 100 µM
TGI (CCRF-CEM leukemia): > 100 µM
TGI (HOP-92 NSCLC): > 100 µM
TGI (NCI-H23 lung): > 100 µM
TGI (RXF 393 renal): > 100 µM
TGI (SF-539 CNS): > 100 µM
TGI (SW-620 colon): > 100 µM

CN1CCN(CCCOc2cccc3nc(Nc4ccc(Cl)c(C(F)(F)F)c4)ccc23)CC1
GI50 (786-0 renal): 1.5 µM
TGI (786-0 renal): 2.89 µM
GI50 (BT-549 breast): 1.71 µM
TGI (BT-549 breast): 3.31 µM
GI50 (HOP-92 NSCLC): 1.02 µM
TGI (HOP-92 NSCLC): 3.69 µM
GI50 (MDA-MB-435): 1680 nM
TGI (MDA-MB-435): 3.23 µM
GI50 (NCI-H23 lung): 1.78 µM
TGI (NCI-H23 lung): 3.42 µM
GI50 (RXF 393 renal): 1.63 µM
TGI (RXF 393 renal): 3.44 µM
GI50 (SF-539 CNS): 1.58 µM
TGI (SF-539 CNS): 3.02 µM
GI50 (SW-620 colon): 1.89 µM
TGI (SW-620 colon): 3.83 µM
GI50 (TK-10 renal): 1.8 µM
TGI (TK-10 renal): 3.44 µM

O=C(CC(Cl)=C(Cl)Cl)c1cccc(Cl)c1Cl
GI50 (786-0 renal): 44.7 µM
TGI (786-0 renal): > 100 µM
GI50 (BT-549 breast): 70.6 µM
TGI (BT-549 breast): > 100 µM
GI50 (CCRF-CEM leukemia): 46.6 µM
TGI (CCRF-CEM leukemia): > 100 µM
GI50 (HOP-92 NSCLC): 61 µM
TGI (HOP-92 NSCLC): > 100 µM
GI50 (NCI-H23 lung): 63.2 µM
TGI (NCI-H23 lung): > 100 µM
GI50 (RXF 393 renal): > 100 µM
TGI (RXF 393 renal): > 100 µM
GI50 (SF-539 CNS): 84.1 µM
TGI (SF-539 CNS): > 100 µM
GI50 (SW-620 colon): 88.7 µM
TGI (SW-620 colon): > 100 µM
GI50 (TK-10 renal): 28.2 µM
TGI (TK-10 renal): > 100 µM

O=C1Cc2cc(C(=O)NC3C[C@H]4CC[C@@H](C3)N4S(=O)(=O)CC3CCN(CCCC(F)(F)F)CC3)c(Cl)cc2N1 (stereo partly specified)
GI50 (786-0 renal): > 100 µM
TGI (786-0 renal): > 100 µM
GI50 (BT-549 breast): > 100 µM
TGI (BT-549 breast): > 100 µM
GI50 (CCRF-CEM leukemia): > 100 µM
TGI (CCRF-CEM leukemia): > 100 µM
GI50 (HOP-92 NSCLC): 67.7 µM
TGI (HOP-92 NSCLC): > 100 µM
GI50 (MDA-MB-435): > 100000 nM
TGI (MDA-MB-435): > 100 µM
GI50 (NCI-H23 lung): > 100 µM
TGI (NCI-H23 lung): > 100 µM
GI50 (SF-539 CNS): > 100 µM
TGI (SF-539 CNS): > 100 µM
GI50 (SW-620 colon): > 100 µM
TGI (SW-620 colon): > 100 µM
GI50 (TK-10 renal): > 100 µM
TGI (TK-10 renal): > 100 µM

CC[C@H](C)[C@H](NC(=O)[C@H]1CCCCN1C)C(=O)N(C)[C@H](C[C@@H](OC(C)=O)c1nc(C(=O)N[C@@H](Cc2ccccc2)C[C@H](C)C(=O)O)cs1)C(C)C
GI50 (786-0 renal): 0.000943 µM and 0.00165 µM
TGI (786-0 renal): > 16.5 µM
GI50 (BT-549 breast): 0.000676 µM and < 0.00165 µM
GI50 (CCRF-CEM leukemia): 0.000392 µM and 0.00165 µM
TGI (CCRF-CEM leukemia): 2.49 µM
GI50 (HOP-92 NSCLC): 7.24 µM
TGI (HOP-92 NSCLC): > 16.5 µM
GI50 (MDA-MB-435): 0.0749 nM and < 1.65 nM
TGI (MDA-MB-435): 0.000386 µM and < 0.00165 µM
GI50 (NCI-H23 lung): 0.000887 µM and 0.00165 µM
TGI (NCI-H23 lung): > 16.5 µM
GI50 (RXF 393 renal): 0.00165 µM
TGI (RXF 393 renal): > 16.5 µM
GI50 (SF-539 CNS): 0.000576 µM and < 0.00165 µM
TGI (SF-539 CNS): 0.00596 µM and < 0.00165 µM
GI50 (SW-620 colon): 0.000332 µM and 0.00165 µM
TGI (SW-620 colon): > 16.5 µM
